Reference: the supplement of paper PMC11061612

Key:
[1] = test system: AGS (Gastric Carcinoma); assay: Bliss excess, mean over the matrix (fraction); higher = more synergy
Method in brief: (§1)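 Cell lines in DMEM/F12 or RPMI with 10% FBS were plated in 1536-well plates, held 24 hours at 37°C, 5% CO2, then given two-drug dose matrices for 72 hours (DMSO typically 0.2%). Viability was read by CellTiter-Glo 2.0 luminescence and scaled as inhibition from 0 (vehicle wells) to 1 (blank wells). Combination Emax is the second-highest inhibition in the matrix; Bliss excess is observed combination effect minus expected EA + EB − EA·EB, EA and EB being single-agent effects.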

[2] = test system: B-CPAP (Thyroid Gland Carcinoma); assay: as above
Method in brief: as §1

[3] = test system: CAL-148 (Breast Carcinoma); assay: as above
Method in brief: as §1

[4] = test system: Calu-3 (Lung Adenocarcinoma); assay: as above
Method in brief: as §1

[5] = test system: DoTc2-4510 (Cervical Carcinoma); assay: as above
Method in brief: as §1

[6] = test system: ES4 (Ewing's Sarcoma); assay: as above
Method in brief: as §1

[7] = test system: HCC1806 (Breast Carcinoma); assay: as above
Method in brief: as §1

[8] = test system: HT-1376 (Bladder Carcinoma); assay: as above
Method in brief: as §1

[9] = test system: KURAMOCHI (Ovarian Carcinoma); assay: as above
Method in brief: as §1

[10] = test system: LNCaP-Clone-FGC (Prostate Carcinoma); assay: as above
Method in brief: as §1

[11] = test system: LU-135 (Small Cell Lung Carcinoma); assay: as above
Method in brief: as §1

[12] = test system: ME-1 (Acute Myeloid Leukemia); assay: as above
Method in brief: as §1

[13] = test system: NCI-H2085 (Non-Small Cell Lung Carcinoma); assay: as above
Method in brief: as §1

[14] = test system: SK-ES-1 (Ewing's Sarcoma); assay: as above
Method in brief: as §1

[15] = test system: 42-MG-BA (Glioblastoma); assay: combination Emax (second highest fraction inhibited in the dose matrix, 72 h); higher = more inhibition; extreme values may be limits of the assay
Method in brief: as §1

[16] = test system: EC-GI-10 (Esophageal Squamous Cell Carcinoma); assay: as above
Method in brief: as §1

[17] = test system: Hs-578-T (Breast Carcinoma); assay: as above
Method in brief: as §1

[18] = test system: KP-1N (Pancreatic Carcinoma); assay: as above
Method in brief: as §1

[19] = test system: T98G (Glioblastoma); assay: as above
Method in brief: as §1

[20] = test system: TE-15 (Esophageal Squamous Cell Carcinoma); assay: as above
Method in brief: as §1
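Throughout, for Bliss excess, mean over the matrix: after 72 h of two-drug dosing.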

Row | Structure (SMILES) | Bliss excess [1] | Bliss excess [2] | Bliss excess [3] | Bliss excess [4] | Bliss excess [5] | Bliss excess [6] | Bliss excess [7] | Bliss excess [8] | Bliss excess [9] | Bliss excess [10] | Bliss excess [11] | Bliss excess [12] | Bliss excess [13] | Bliss excess [14] | combination Emax [15] | combination Emax [16] | combination Emax [17] | combination Emax [18] | combination Emax [19] | combination Emax [20]
1 | CN(CCO)CC[C@H](CSc1ccccc1)Nc1ccc(S(=O)(=O)NC(=O)c2ccc(N3CCC([C@@H](O)c4ccccc4-c4ccc(Cl)cc4)CC3)cc2)cc1S(=O)(=O)C(F)(F)F [AZD4320] + Cn1cnc2c(F)c(Nc3ccc(Br)cc3Cl)c(C(=O)NOCCO)cc21 [Selumetinib] (first compound max 1 µM, 7x7, partner max 3 µM) | 0.181 | 0.0228 | -0.0201 | -0.0028 | -0.021 | 0.0074 | 0.0605 | 0.0297 | 0.0636 | 0.0009 | 0.0266 | 0.0484 | 0.032 | -0.0095 | 0.694 | 0.51 | 0.812 | 0.196 | 0.277 | 0.43
2 | CN(CCO)CC[C@H](CSc1ccccc1)Nc1ccc(S(=O)(=O)NC(=O)c2ccc(N3CCC([C@@H](O)c4ccccc4-c4ccc(Cl)cc4)CC3)cc2)cc1S(=O)(=O)C(F)(F)F [AZD4320] + C=CCn1c(=O)c2cnc(Nc3ccc(N4CCN(C)CC4)cc3)nc2n1-c1cccc(C(C)(C)O)n1 [AZD1775] (first compound max 1 µM, partner max 1 µM) | 0.0191 | 0.0808 | -0.0033 | 0.014 | 0.0205 | 0.12 | 0.0043 | -0.0588 | 0.0419 | -0.0222 | 0.0636 | 0.0475 | -0.0212 | 0.093 | 0.293 | 0.903 | 0.928 | 0.398 | 0.892 | 0.615
3 | CN(CCO)CC[C@H](CSc1ccccc1)Nc1ccc(S(=O)(=O)NC(=O)c2ccc(N3CCC([C@@H](O)c4ccccc4-c4ccc(Cl)cc4)CC3)cc2)cc1S(=O)(=O)C(F)(F)F [AZD4320] + C[C@@H](Nc1cc(F)cc(F)c1)c1cc(C(=O)N(C)C)cc2c(=O)cc(N3CCOCC3)oc12 [AZD8186] (first compound max 1 µM, 7x7, partner max 3 µM) | 0.018 | 0.0064 | -0.0054 | 0.002 | 0.0252 | -0.0507 | 0.0033 | -0.0224 | 0.0147 | -0.0005 | 0.0404 | 0.0013 | -0.0231 | 0.0521 | 0.757 | 0.333 | 0.874 | 0.303 | 0.482 | 0.551
4 | CC(=O)c1c(C)c2cnc(Nc3ccc(N4CCNCC4)cn3)nc2n(C2CCCC2)c1=O [Palbociclib] + Cn1cnc2c(F)c(Nc3ccc(Br)cc3Cl)c(C(=O)NOCCO)cc21 [Selumetinib] (first compound max 10 µM, 7x7, partner max 10 µM) | -0.0123 | 0.0321 | -0.0462 | -0.0095 | -0.0384 | -0.0359 | 0.0382 | -0.047 | 0.0078 | 0.0237 | 0.0056 | -0.0321 | 0.0018 | -0.0161 | 0.232 | 0.493 | 0.344 | 0.196 | 0.374 | 0.657
5 | Cc1nc(Nc2ncc(C(=O)Nc3c(C)cccc3Cl)s2)cc(N2CCN(CCO)CC2)n1 [Dasatinib] + CC(=O)Nc1cccc(-n2c(=O)n(C3CC3)c(=O)c3c(Nc4ccc(I)cc4F)n(C)c(=O)c(C)c32)c1 [Trametinib] (first compound max 2 µM, 7x7, partner max 1 µM) | 0.0433 | -0.0158 | -0.0252 | 0.0074 | -0.0338 | -0.0951 | -0.0461 | 0.0158 | 0.0706 | -0.0361 | -0.0258 | 0.0126 | 0.0168 | -0.0256 | 0.971 | 0.503 | 0.922 | 0.478 | 0.744 | 0.782
6 | Cc1cc2ncnn2cc1Nc1ncc2c(n1)n(C1CCOCC1)c(=O)n2C [AZD7648] + C[C@@H]1COCCN1C2=NC(=NC(=C2)C3(CC3)[S@](=N)(=O)C)C4=C5C=CNC5=NC=C4 [AZD6738] (first compound max 10 µM, 7x7, partner max 10 µM) | 0.0015 | -0.0649 | 0.0532 | 0.0012 | 0.0178 | 0.0062 | 0.014 | 0.0176 | -0.0229 | -0.0069 | 0.0123 | -0.0321 | 0.0007 | 0.0046 | 0.692 | 0.517 | 0.912 | 0.252 | 0.859 | 0.713
7 | CCc1c2c(nc3ccc(O)cc13)-c1cc3c(c(=O)n1C2)COC(=O)[C@]3(O)CC [SN-38] + CN(C)CCCOc1ccc(-c2ccc3ncc4c(c3c2)n(C2CCOCC2)c(=O)n4C)cn1 [AZD0156] (first compound max 0.3 µM, 7x7, partner max 1 µM) | -0.0061 | 0.0105 | -0.0174 | 0.0092 | 0.0091 | 0.0523 | -0.0222 | -0.0547 | 0.0421 | -0.0804 | -0.0201 | -0.008 | -0.0026 | 0.0037 | 1 | 0.776 | 0.635 | 0.627 | 0.546 | 0.819
8 | CN(C)CCCOc1ccc(-c2ccc3ncc4c(c3c2)n(C2CCOCC2)c(=O)n4C)cn1 [AZD0156] + C[C@@H]1COCCN1C2=NC(=NC(=C2)C3(CC3)[S@](=N)(=O)C)C4=C5C=CNC5=NC=C4 [AZD6738] (first compound max 1 µM, 7x7, partner max 10 µM) | 0.0232 | 0.027 | -0.0441 | -0.0205 | 0.0037 | 0.0618 | 0.0241 | -0.0193 | -0.0119 | -0.056 | -0.032 | -0.107 | 0.0274 | 0.0267 | 0.701 | 0.724 | 0.885 | 0.399 | 0.855 | 0.734
9 | CCN(CCO)CCCOc1ccc2c(Nc3cc(CC(=O)Nc4cccc(F)c4)[nH]n3)ncnc2c1 [AZD2811] + O=C(c1cc(Cc2n[nH]c(=O)c3ccccc23)ccc1F)N1CCN(C(=O)C2CC2)CC1 [Olaparib] (first compound max 1 µM, 7x7, partner max 10 µM) | 0.0484 | 0.0104 | 0.0319 | 0.0047 | 0.0035 | -0.0138 | 0.0298 | -0.0499 | -0.0317 | -0.0009 | -0.0632 | 0.0119 | -0.0109 | -0.0075 | 0.464 | 0.551 | 0.622 | 0.0679 | 0.453 | 0.25
10 | CC1(C)CCC(CN2CCN(c3ccc(C(=O)NS(=O)(=O)c4ccc(NCC5CCOCC5)c([N+](=O)[O-])c4)c(Oc4cnc5[nH]ccc5c4)c3)CC2)=C(c2ccc(Cl)cc2)C1 [Venetoclax] + C[C@@H]1COCCN1C2=NC(=NC(=C2)C3(CC3)[S@](=N)(=O)C)C4=C5C=CNC5=NC=C4 [AZD6738] (first compound max 1 µM, 7x7, partner max 10 µM) | -0.0423 | -0.0136 | -0.0501 | -0.0023 | -0.0174 | -0.0465 | -0.0665 | -0.0365 | -0.0451 | -0.0645 | 0.0538 | 0.0345 | 0.0309 | 0.0104 | 0.678 | 0.608 | 0.909 | 0.235 | 0.889 | 0.796
11 | C=CCn1c(=O)c2cnc(Nc3ccc(N4CCN(C)CC4)cc3)nc2n1-c1cccc(C(C)(C)O)n1 [AZD1775] + C[C@@H]1COCCN1C2=NC(=NC(=C2)C3(CC3)[S@](=N)(=O)C)C4=C5C=CNC5=NC=C4 [AZD6738] (first compound max 1 µM, partner max 10 µM) | 0.113 | 0.0499 | -0.034 | -0.0181 | 0.0479 | 0.0417 | 0.0166 | -0.0483 | -0.0355 | -0.0387 | -0.0044 | -0.0241 | 0.0147 | 0.0071 | 0.763 | 0.943 | 0.921 | 0.397 | 0.873 | 0.761
12 | CC1(C)CCC(CN2CCN(c3ccc(C(=O)NS(=O)(=O)c4ccc(NCC5CCOCC5)c([N+](=O)[O-])c4)c(Oc4cnc5[nH]ccc5c4)c3)CC2)=C(c2ccc(Cl)cc2)C1 [Venetoclax] + C1CN(CCC1(C(=O)N[C@@H](CCO)C2=CC=C(C=C2)Cl)N)C3=NC=NC4=C3C=CN4 [Capivasertib] (first compound max 1 µM, 7x7, partner max 3 µM) | -0.0406 | -0.0312 | -0.0444 | -0.0116 | -0.0185 | -0.0231 | -0.0087 | -0.0621 | -0.0538 | -0.0464 | -0.0429 | 0 | -0.0569 | 0.0068 | 0.518 | 0.426 | 0.812 | 0.172 | 0.326 | 0.401
